Measurements from ChEMBL document CHEMBL1141829, “10'-Hydroxyusambarensine, a new antimalarial bisindole alkaloid from the roots of Strychnos usambarensis” (J Nat Prod, 1999).
Converted amounts (≈) assume the structure as drawn.

Experiments:
[1] = system: Plasmodium falciparum; assay: Antiplasmodial activity after 36 hrs against chloroquine-resistant Plasmodium falciparum W2 in human erythrocytes by [3H]hypoxanthine uptake; format: functional, organism-based
[2] = system: Plasmodium falciparum; assay: Antiplasmodial activity after 36 hrs against chloroquine-sensitive Plasmodium falciparum FCA 20 in human erythrocytes by [3H]hypoxanthine uptake; format: functional, organism-based

C/C=C1\CN2CCc3c([nH]c4ccccc34)[C@@H]2C[C@@H]1Cc1nccc2c1[nH]c1ccc(O)cc12
IC50 [1]: 0.16 µg/mL (≈ 0.357 µM) | IC50 [2]: 0.48 µg/mL (≈ 1.07 µM)

C/C=C1/CN2CCc3c([nH]c4ccccc34)[C@@H]2C[C@@H]1Cc1nccc2c1[nH]c1ccccc12 [USAMBARENSINE]
IC50 [1]: 0.265 µg/mL (≈ 0.613 µM) | IC50 [2]: 0.655 µg/mL (≈ 1.51 µM)

C/C=C1/CN2CCc3c([nH]c4ccccc34)[C@@H]2C[C@@H]1Cc1nccc2c1[nH]c1ccc(O)cc12
IC50 [1]: 0.122 µg/mL (≈ 0.272 µM) | IC50 [2]: 0.113 µg/mL (≈ 0.252 µM)
